From US20230234942A1, “COMPOUNDS FOR TREATING HUNTINGTON'S DISEASE” (PTC Therapeutics, Inc., priority 2020, published 2023)

System: Endogenous Huntingtin Protein
Assay: Endogenous Huntingtin Protein Assay (ELISA-based MSD electrochemiluminescence)
Assay type: cell-based
Outline: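 Endogenous huntingtin measured on MSD plates coated with MW1 (polyglutamine-expanded) or MAB2166 capture antibody; lysates bound overnight at 4 °C. Signal developed with #56565 rabbit monoclonal and goat anti-rabbit SULFO-TAG (0.25 µg/mL, 1 h RT each), electrochemiluminescence read on SI 6000.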

[1] = Table 2, MSD plates coated with MW1 (expanded polyglutamine) or MAB2166 capture antibody, "inactive" = result above the detection limit of the assay

Structure (SMILES)	IC50 [1]	IC50 (Table 3, selected compounds from WO/2019/191229 A1, same MSD assay)
CC(C)[C@H]1CN(c2ncc(-c3ccc(-c4ncc(Cl)s4)cc3O)nn2)CCN1 [Cpd 189, 5-(5-chloro-1,3-thiazol-2-yl)-2-{3-[(3S)-3-(propan-2-yl)piperazin-1-yl]-1,2,4-triazin-6-yl}phenol]	461 nM	–
CC(C)(O)C1CN(c2ncc(-c3ccc(-n4nccn4)cc3O)nn2)CCN1 (stereo not drawn) [Cpd 14, 2-{3-[3-(2-hydroxypropan-2-yl)piperazin-1-yl]-1,2,4-triazin-6-yl}-5-(2H-1,2,3-triazol-2-yl)phenol]	12.2 nM	–
CCc1cc(-c2ccc(-c3cnc(N4CCN[C@@H](C(C)C)C4)nn3)c(O)c2)cn2cc(C)nc12 [Cpd 138, 5-(8-ethyl-2-methylimidazo[1,2-a]pyridin-6-yl)-2-{3-[(3S)-3-(propan-2-yl)piperazin-1-yl]-1,2,4-triazin-6-yl}phenol]	19.9 nM	–
CC(C)[C@@H]1CN(c2ncc(-c3ccc(-c4cn[nH]c4)cc3O)nn2)CCN1 [Cpd 40, 2-{3-[(3R)-3-(propan-2-yl)piperazin-1-yl]-1,2,4-triazin-6-yl}-5-(1H-pyrazol-4-yl)phenol]	68.2 nM	–
Oc1cc(-n2nccn2)ccc1-c1cnc(N2CCN3CCC[C@H]3C2)nn1 [Cpd 153, 2-{3-[(8aS)-hexahydropyrrolo[1,2-a]pyrazin-2(1H)-yl]-1,2,4-triazin-6-yl}-5-(2H-1,2,3-triazol-2-yl)phenol]	438 nM	–
Oc1cc(-c2cn[nH]c2)ccc1-c1cnc(N2CCNC3(CCCC3)C2)nn1 [Cpd 43, 2-[3-(6,9-diazaspiro[4.5]decan-9-yl)-1,2,4-triazin-6-yl]-5-(1H-pyrazol-4-yl)phenol]	116 nM	–
Cc1cn2cc(-c3ccc(-c4cnc(N5CCN(C)CC5)nn4)c(O)c3)cc(F)c2n1 [Cpd 73, 5-(8-fluoro-2-methylimidazo[1,2-a]pyridin-6-yl)-2-[3-(4-methylpiperazin-1-yl)-1,2,4-triazin-6-yl]phenol]	4.1 nM	–
[2H]C([2H])([2H])Oc1cc(-c2ccc(-c3cnc(N4CCN(C)C(C(C)(C)O)C4)nn3)c(O)c2)ncn1 (stereo not drawn) [Cpd 26, 2-{3-[3-(2-hydroxypropan-2-yl)-4-methylpiperazin-1-yl]-1,2,4-triazin-6-yl}-5-{6-[(^2H3)methyloxy]pyrimidin-4-yl}phenol]	24.9 nM	–
COc1csc(-c2ccc(-c3cnc(N4CCN[C@@H](C(C)C)C4)nn3)c(O)c2)n1 [Cpd 200, 5-(4-methoxy-1,3-thiazol-2-yl)-2-{3-[(3S)-3-(propan-2-yl)piperazin-1-yl]-1,2,4-triazin-6-yl}phenol]	30.1 nM	–
CC(C)[C@@H]1CN(c2ncc(-c3ccc(-c4cn[nH]c4)cc3O)nn2)C[C@H](C)N1 [Cpd 216, 2-{3-[(3S,5R)-3-methyl-5-(propan-2-yl)piperazin-1-yl]-1,2,4-triazin-6-yl]-5-(1H-pyrazol-4-yl)phenol]	218 nM	–
Oc1cc(-c2cc(N3CCC3)ncn2)ccc1-c1cnc(N2CCNC(C3CC3)C2)nn1 (racemic) [Cpd 210, 5-[6-(azetidin-1-yl)pyrimidin-4-yl]-2-{3-[(3RS)-3-cyclopropylpiperazin-1-yl]-1,2,4-triazin-6-yl}phenol]	975 nM	–
Oc1cc(-c2c[nH]nc2F)ccc1-c1cnc(N2CCNC3(CC3)C2)nn1 [Cpd 57, 2-[3-(4,7-diazaspiro[2.5]octan-7-yl)-1,2,4-triazin-6-yl]-5-(3-fluoro-1H-pyrazol-4-yl)phenol]	668 nM	–
CC1CN(c2ncc(-c3ccc(-c4cn[nH]c4)cc3O)nn2)CC(C)N1 (stereo not drawn) [WO/2019/191229 A1 Cpd 262, reference compound]	–	72.8 nM
Oc1cc(-c2cn[nH]c2)ccc1-c1cnc(N2CCNC3(CCC3)C2)nn1 [Cpd 50, 2-[3-(5,8-diazaspiro[3.5]nonan-8-yl)-1,2,4-triazin-6-yl]-5-(1H-pyrazol-4-yl)phenol]	312 nM	–
CC(C)C1CN(c2ncc(-c3ccc(-c4cn[nH]c4)cc3O)nn2)CCN1 (stereo not drawn) [Cpd 22, 2-{3-[3-(propan-2-yl)piperazin-1-yl]-1,2,4-triazin-6-yl}-5-(1H-pyrazol-4-yl)phenol]	22.3 nM	–
Cc1cnsc1-c1ccc(-c2cnc(N3CCN[C@@H](C(C)C)C3)nn2)c(O)c1 [Cpd 253, 5-(4-methyl-1,2-thiazol-5-yl)-2-{3-[(3S)-3-(propan-2-yl)piperazin-1-yl]-1,2,4-triazin-6-yl}phenol]	376 nM	–
CC(C)[C@H]1CN(c2ncc(-c3ccc(-c4cnn5c4OCCC5)cc3O)nn2)CCN1 [Cpd 282, 5-(6,7-dihydro-5H-pyrazolo[5,1-b][1,3]oxazin-3-yl)-2-{3-[(3S)-3-(propan-2-yl)piperazin-1-yl]-1,2,4-triazin-6-yl}phenol]	131 nM	–
CC(C)[C@H]1CN(c2ncc(-c3ccc(-c4cnc5n4CCC5)cc3O)nn2)CCN1 [Cpd 279, 5-(6,7-dihydro-5H-pyrrolo[1,2-a]imidazol-3-yl)-2-{3-[(3S)-3-(propan-2-yl)piperazin-1-yl]-1,2,4-triazin-6-yl}phenol]	5.2 nM	–
C[C@@H]1CN(c2ncc(-c3ccc(-n4nccn4)cc3O)nn2)C[C@H](C)N1 [Cpd 54, 2-{3-[(3R,5S)-3,5-dimethylpiperazin-1-yl]-1,2,4-triazin-6-yl}-5-(2H-1,2,3-triazol-2-yl)phenol]	440 nM	–
C[C@@H]1CN(c2ncc(-c3ccc(-c4ccc5nn(C)cc5c4)cc3O)nn2)C[C@H](C)N1 [Cpd 72, 2-{3-[(3R,5S)-3,5-dimethylpiperazin-1-yl]-1,2,4-triazin-6-yl]-5-(2-methyl-2H-indazol-5-yl)phenol]	4.1 nM	–
C[C@@H]1CN(c2ncc(-c3ccc(-c4cnc5nn(C)nc5c4)cc3O)nn2)C[C@H](C)N1 [Cpd 197, 2-{3-[(3R,5S)-3,5-dimethylpiperazin-1-yl]-1,2,4-triazin-6-yl}-5-(2-methyl-2H-[1,2,3]triazolo[4,5-b]pyridin-6-yl)phenol]	11.6 nM	–
Cc1cnn(-c2ccc(-c3cnc(N4CCN[C@@H](C(C)C)C4)nn3)c(O)c2)n1 [Cpd 184, 5-(4-methyl-2H-1,2,3-triazol-2-yl)-2-{3-[(3S)-3-(propan-2-yl)piperazin-1-yl]-1,2,4-triazin-6-yl}phenol]	49 nM	–
Cc1cn2cc(-c3ccc(-c4cnc(N5CCN[C@@H](C(C)C)C5)nn4)c(O)c3)cc(C(F)(F)F)c2n1 [Cpd 139, 5-[2-methyl-8-(trilluoromethyl)imidazo[1,2-a]pyridin-6-yl]-2-{3-[(3S)-3-(propan-2-yl)piperazin-1-yl]-1,2,4-triazin-6-yl}phenol]	18 nM	–
Cn1nc2ccc(-c3ccc(-c4cnc(N5CCN[C@@H](C6CC6)C5)nn4)c(O)c3)nc2n1 [Cpd 202, 2-{3-[(3S)-3-cyclopropylpiperazin-1-yl]-1,2,4-triazin-6-yl}-5-(2-methyl-2H-[1,2,3]triazolo[4,5-b]pyridin-5-yl)phenol]	3.7 nM	–
CCN1CCN(c2ncc(-c3ccc(-c4cc(F)c5nc(C)cn5c4)cc3O)nn2)C[C@H]1C [Cpd 89, 2-{3-[(3R)-4-ethyl-3-methylpiperazin-1-yl]-1,2,4-triazin-6-yl}-5-(8-fluoro-2-methylimidazo[1,2-a]pyridin-6-yl)phenol]	6.7 nM	–
CC1(C)CN(c2ncc(-c3ccc(-c4cn[nH]c4)cc3O)nn2)CCN1 [Cpd 56, 2-[3-(3,3-dimethylpiperazin-1-yl)-1,2,4-triazin-6-yl]-5-(1H-pyrazol-4-yl)phenol]	654 nM	–
COc1cc(-c2ccc(-c3cnc(N4CCN[C@@H](C(C)C)C4)nn3)c(O)c2)cc(C)n1 [Cpd 271, 5-(2-methoxy-6-methylpyridin-4-yl)-2-{3-[(3S)-3-(propan-2-yl)piperazin-1-yl]-1,2,4-triazin-6-yl}phenol]	943 nM	–
